# From patent publication US12509459B2, “Inhibitors of NLRP3 inflammasome” (BioAge Labs, Inc., priority 2024, dated 2025)
# Legend:
# NLRP3 [1] = target: T1, NLRP3 (Homo sapiens, UniProt Q96P20); experiment: Cryo-EM NLRP3 epitope determination; format: binding; design: made in house; host or cells: Sf9 insect cells (baculovirus); settings: cryo-EM of NLRP3·Compound 007 complex, 3.00 Å resolution, FIG. 1
# From the text: Compound 007 of the disclosure was used as an exemplary compound for determining the epitope to NLRP3, using cryogenic electron microscopy (cryo-EM).
# Full length, human NLRP3 (3-1036, UniProt accession code Q96P20), codon-optimized for Spodoptera frugiperda, was cloned in an in-house modified pACE-Bac1 vector containing an N-terminal MBP-tag, followed by a Tobacco etch virus (TEV) protease cleavage site. For recombinant protein expression of MBP-NLRP3, 1 L of Sf9 insect cells were infected with 3% v/v viral stock of the second virus passage. The expression culture was incubated for 72 h at 27° C. and 80 rpm, and was subsequently harvested by centrifugation at 2000 rpm for 20 min. […] Elution fractions were analyzed by SDS-PAGE and negative stain electron microscopy (EM), before they were plunge frozen for cryo-EM analysis.
# The purified NLRP3·Compound 007 complex was applied onto glow-discharged EM-grids (Quantifoil Cu300 R2/1+2 nm carbon support film), incubated for 30s at 100% humidity and 4° C., before it was blotted for 5s with blot force 5 and plunge frozen into liquid ethane using a Vitrobot mark IV plunge freezing device (Thermo Fisher Scientific). […] Using the blob picker, 3,114,152 particles were picked and detected of which 2,058,399 were extracted (search particle diameter […], 588 box size), of which 559,748 particles remained after multiple rounds of 2D classification. […]
# Target sequence in this assay (Q96P20 3-1036): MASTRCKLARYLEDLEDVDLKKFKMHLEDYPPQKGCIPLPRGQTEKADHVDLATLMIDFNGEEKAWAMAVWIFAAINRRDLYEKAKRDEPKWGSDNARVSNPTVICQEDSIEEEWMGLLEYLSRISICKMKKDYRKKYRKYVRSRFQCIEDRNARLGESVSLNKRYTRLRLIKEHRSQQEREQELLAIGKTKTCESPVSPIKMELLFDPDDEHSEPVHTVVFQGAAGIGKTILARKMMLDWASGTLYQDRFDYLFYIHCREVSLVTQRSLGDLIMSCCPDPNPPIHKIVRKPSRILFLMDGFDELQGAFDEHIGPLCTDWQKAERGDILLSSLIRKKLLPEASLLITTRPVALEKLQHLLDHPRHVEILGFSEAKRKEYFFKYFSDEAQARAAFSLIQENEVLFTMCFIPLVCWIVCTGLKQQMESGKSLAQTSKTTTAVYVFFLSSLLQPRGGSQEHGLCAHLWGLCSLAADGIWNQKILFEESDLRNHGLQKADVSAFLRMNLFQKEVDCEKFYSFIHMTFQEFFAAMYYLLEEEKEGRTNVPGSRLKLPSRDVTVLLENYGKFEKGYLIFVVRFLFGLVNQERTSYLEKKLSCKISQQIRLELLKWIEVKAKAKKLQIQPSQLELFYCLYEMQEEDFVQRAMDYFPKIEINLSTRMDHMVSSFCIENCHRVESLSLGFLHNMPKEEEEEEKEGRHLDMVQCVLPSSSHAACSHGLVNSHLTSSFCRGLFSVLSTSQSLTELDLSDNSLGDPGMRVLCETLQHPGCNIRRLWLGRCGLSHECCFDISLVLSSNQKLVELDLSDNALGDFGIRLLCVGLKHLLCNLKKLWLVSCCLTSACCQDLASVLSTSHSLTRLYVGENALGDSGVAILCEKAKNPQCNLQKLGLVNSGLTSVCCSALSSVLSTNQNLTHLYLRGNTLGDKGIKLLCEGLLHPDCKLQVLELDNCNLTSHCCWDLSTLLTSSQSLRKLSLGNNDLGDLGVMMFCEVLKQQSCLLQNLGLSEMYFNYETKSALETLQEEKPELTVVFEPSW
# NLRP3 [2] = target: T1, NLRP3; experiment: THP-1 cell-based NLRP3 activation assay; design: endogenous in cells; host or cells: THP-1 cells (PMA-differentiated, LPS-primed, nigericin-stimulated); settings: PMA-differentiated THP-1 cells, LPS 100 ng/mL then 10 μM nigericin
# In short: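 THP-1 cells were PMA-differentiated (20 nM, 24 h or 500 nM, 3 h), primed with 100 ng/mL LPS for 3 h, then given compound in Opti-Mem for 30 min before 10 μM nigericin for 1 h. Supernatants assayed; viability of adherent cells by CellTiter-Glo.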
# Target sequence in this assay (Q96P20 whole entry): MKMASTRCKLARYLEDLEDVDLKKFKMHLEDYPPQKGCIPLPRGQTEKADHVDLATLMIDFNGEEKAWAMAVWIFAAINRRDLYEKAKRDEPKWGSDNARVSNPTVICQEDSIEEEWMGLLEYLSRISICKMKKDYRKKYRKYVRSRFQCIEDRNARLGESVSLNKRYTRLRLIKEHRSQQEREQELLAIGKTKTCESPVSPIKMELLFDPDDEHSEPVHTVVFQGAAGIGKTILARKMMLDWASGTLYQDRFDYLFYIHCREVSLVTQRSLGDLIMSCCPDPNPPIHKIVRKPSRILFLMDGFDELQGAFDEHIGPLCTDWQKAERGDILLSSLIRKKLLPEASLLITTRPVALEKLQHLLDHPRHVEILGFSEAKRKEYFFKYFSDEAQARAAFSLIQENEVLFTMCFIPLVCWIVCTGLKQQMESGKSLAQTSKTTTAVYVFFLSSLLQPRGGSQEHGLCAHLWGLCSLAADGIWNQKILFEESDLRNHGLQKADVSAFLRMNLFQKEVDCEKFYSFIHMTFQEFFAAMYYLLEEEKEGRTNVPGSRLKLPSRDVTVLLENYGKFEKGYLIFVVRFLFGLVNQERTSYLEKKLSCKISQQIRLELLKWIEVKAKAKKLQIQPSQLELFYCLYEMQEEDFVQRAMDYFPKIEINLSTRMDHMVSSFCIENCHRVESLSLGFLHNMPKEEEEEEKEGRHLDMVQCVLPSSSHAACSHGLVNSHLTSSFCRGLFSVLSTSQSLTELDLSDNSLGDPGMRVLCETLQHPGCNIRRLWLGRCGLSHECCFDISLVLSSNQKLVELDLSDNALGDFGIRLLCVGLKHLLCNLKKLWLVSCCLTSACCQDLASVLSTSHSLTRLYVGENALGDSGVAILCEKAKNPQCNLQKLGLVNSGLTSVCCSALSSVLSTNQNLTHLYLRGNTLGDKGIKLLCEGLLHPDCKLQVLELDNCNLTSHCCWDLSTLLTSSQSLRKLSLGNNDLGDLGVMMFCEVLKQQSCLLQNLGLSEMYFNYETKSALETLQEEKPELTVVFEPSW
# foot gout mouse model = experiment: Foot gout mouse model; format: in vivo; settings: for swelling: FIG. 16 and FIG. 17
# DIO mice = experiment: Diet-induced obesity (DIO) mouse model; format: in vivo; settings: for Day 28 BW % change vs. DIO/VEH / Day 28 BW % change vs. baseline / Day 14 BW % change vs. baseline: po; for body weight of high fat DIO mice / food consumption of high fat DIO mice: summary, comparable to the effect of Semaglutide; for fat mass: FIG. 15
# [3] = DIO mice, 5 to 100/75 mpk QD PO, FIG. 10
# [4] = DIO mice, 100/75 mpk, qd (75 mpk since day 9)
# [5] = DIO mice, doses of 50 mpk or higher, FIG. 11
# [6] = DIO mice, doses of 50 mpk or higher, treatment for 4 weeks, FIG. 13
# [7] = Compound 096/211 study, FIGS. 14A and 14B
# [8] = DIO mice, Compound 096/211 study, FIG. 14
# [9] = DIO mice, Compound 096/211 study
smiles,measurement,setting,value
CCOc1cc(C(=O)N(C)[C@H](CCO)c2cncc3cn[nH]c23)ccc1-c1cccc(F)c1 [Compound 007],binding site on NLRP3,NLRP3 [1],binds in a pocket on the surface of the NACHT domain of NLRP3
same,IC50,NLRP3 [2],< 100 nM
CCOc1cc(C(=O)N(C)[C@H](CCN(C)C)c2cncc3cn[nH]c23)ccc1-c1cccc(F)c1 [Compound 040],IC50,NLRP3 [2],< 100 nM
same,treatment mode in foot gout model,foot gout mouse model,can be used as both a preventative and therapeutic treatment
same,swelling,foot gout mouse model,reduce swelling in a foot gout mouse model in a dose dependent manner
same,body weight of DIO mice,"DIO mice; 5 to 100/75 mpk QD PO, FIG. 8",dose-dependent effect on reducing body weight
same,Day 28 BW % change vs. DIO/VEH,"DIO mice; DIO mice, 5 mpk, qd",0.6%
same,Day 28 BW % change vs. baseline,"DIO mice; DIO mice, 5 mpk, qd",4.6%
same,food consumption,"DIO mice; DIO mice, 5 to 100/75 mpk QD PO, FIG. 9",dose-dependent effect on reducing food consumption
same,fat mass to body weight percentage,DIO mice; [3],dose-dependent effect on reducing fat mass to body weight percentage
same,lean mass to body weight percentage,DIO mice; [3],maintaining lean mass to body weight percentage
same,Day 28 BW % change vs. DIO/VEH,"DIO mice; DIO mice, 20 mpk, qd",−2.7%
same,Day 28 BW % change vs. baseline,"DIO mice; DIO mice, 20 mpk, qd",1.3%
same,Day 28 BW % change vs. DIO/VEH,"DIO mice; DIO mice, 50 mpk, qd",−11.6%
same,Day 28 BW % change vs. baseline,"DIO mice; DIO mice, 50 mpk, qd",−7.6%
same,Day 28 BW % change vs. DIO/VEH,DIO mice; [4],−22.0%
same,Day 28 BW % change vs. baseline,DIO mice; [4],−17.9%
same,inguinal fat to body weight percentage or muscle tissues to body weight percentage,"DIO mice; DIO mice, compared with Semaglutide treated mice, FIG. 13",no significant difference from Semaglutide treated mice
same,fasting glucose,DIO mice; [5],significantly reduced fasting glucose
same,insulin sensitivity,DIO mice; [5],improved insulin sensitivity
same,inguinal fat weight,DIO mice; [6],significantly reduced
same,liver weight,DIO mice; [6],significantly reduced
same,body weight of high fat DIO mice,DIO mice,significantly reduced
same,food consumption of high fat DIO mice,DIO mice,significantly reduced
CCOc1cc(C(=O)N(C)[C@H](CCN(C)C)c2cncc3cn[nH]c23)ccc1-c1ccccc1 [Compound 096],IC50,NLRP3 [2],< 100 nM
same,swelling,foot gout mouse model,reduce swelling in a foot gout mouse model in a dose dependent manner
same,body weight of DIO mice,DIO mice; [7],dose-dependent effect on reducing body weight
same,Day 14 BW % change vs. baseline,"DIO mice; DIO mice, 50 mpk, qd",−11.9%
same,food consumption,DIO mice; [8],dose-dependent effect on reducing food consumption
same,fat mass,DIO mice; [9],caused a change in fat mass
same,body weight of high fat DIO mice,DIO mice,significantly reduced
same,food consumption of high fat DIO mice,DIO mice,significantly reduced
[2H]C([2H])([2H])N(CC[C@H](c1cncc2cn[nH]c12)N(C)C(=O)c1ccc(-c2cccc(F)c2)c(OCC)c1)C([2H])([2H])[2H] [Compound 211],IC50,NLRP3 [2],< 100 nM
same,body weight of DIO mice,DIO mice; [7],dose-dependent effect on reducing body weight
same,Day 14 BW % change vs. baseline,"DIO mice; DIO mice, 50 mpk, qd",−14.9%
same,food consumption,DIO mice; [8],dose-dependent effect on reducing food consumption
same,fat mass,DIO mice; [9],caused a change in fat mass
same,body weight of high fat DIO mice,DIO mice,significantly reduced
same,food consumption of high fat DIO mice,DIO mice,significantly reduced
